Test results taken from patent publication US8975249B2, “Heterocyclic compounds and uses thereof” (Celgene Avilomics Research, Inc., priority 2010, dated 2015).

Experiments:
[1] = test system: HCC827 cells (EGFR delE746-A750); experiment: Cell proliferation (CellTiter Glo), HCC827 cells; settings: proliferation GI50 WT EGFR / HCC827
Protocol: (§7) Cells were plated in Growth Media supplemented with 5% FBS and 1% P/S at a density of 3,000 cells per well in 96 well tissue culture plates (Corning). […] Growth inhibition (GI50) values were determined by Graph Pad Prism.

WT EGFR (A431 cells) = WT EGFR (A431 cells) (Homo sapiens (Human), UniProt P00533); experiment: Phospho-EGFR signaling immunoblot in A431 cells (WT EGFR); type: cell-based; settings: 1 hr treatment, EGF stimulated, phospho-EGFR (Y1068)
Protocol: (§1) A431 human epidermoid carcinoma, H1975 human NSCLC and HCC827 human NSCLC adenocarcinoma cells were obtained from the American Type Culture Center (Manassas, Va.). A431 cells were grown in DMEM (Invitrogen, Carlsbad, Calif.) supplemented with 10% FBS (HyClone, South Logan, Utah) and 1% Penicillin-Streptomycin (P/S, Lonza, Walkersville, Md.).
(§2) All primary antibodies were obtained from Cell Signaling (Danvers, Mass.) and used at 1:1000. Secondary antibodies were used at 1:10,000. Goat anti-mouse IgG IRDye 800CW antibody was obtained from LiCor Biosciences (Lincoln, Nebr.) and goat anti-rabbit IgG Alexa Fluor 680 was obtained from Invitrogen.
(§3) Cells were grown in 12-well plates (Corning, Coring, N.Y.) to 90% confluence and then incubated in low-serum (0.1% FBS) media for 16-18 hr. […] A431 cells were then stimulated with 50 ng/ml EGF (Peprotech, Rocky Hill, N.J.) for 15 min. After treatment, cell monolayers were washed with cold PBS (Invitrogen) and immediately lysed by scrapping into 60 uL cold Cell Extraction Buffer (Invitrogen) supplemented with Complete Protease inhibitors (Roche, Indianapolis, Ind.) and PhosphoSTOP (Roche) phosphatase inhibitors.
(§4) Phospho-protein signals were quantitated using Odyssey Infrared Imaging (Li-Cor Biosciences).
(§5) To assess phosphor-EGFR signaling, blots were probed with rabbit anti-Phospho-EGFR (Y1068) and mouse total anti-EGFR antibodies. Phospho-EGFR signal was normalized to total EGFR expression for each sample. […] Normalized data was fitted using a sigmoidal curve analysis program (Graph Pad Prism version 5) with variable Hill slope to determine the EC50 values.
(§6) The compound numbers recited in Table 4 correspond to the compound numbers in Table 1.

[2] = biological target: EGFR double mutation L858R/T790M (H1975 cells) (Homo sapiens (Human), UniProt P00533, L858R/T790M); experiment: Phospho-EGFR signaling immunoblot in H1975 cells; type: cell-based; settings: for EC50: H1975 cells, 1 hr treatment, phospho-EGFR (Y1068); for Ratio WT/mutant (H1975): signaling EC50 WT EGFR / H1975
Protocol: as §1, §2, §3, §4, §5, §6

EGFR (WT) = EGFR (WT) (Homo sapiens (Human), UniProt P00533); experiment: Omnia biochemical assay, EGFR-WT active enzyme; settings: [EGFR-WT]=5 nM, [ATP]=15 uM, 30 min pre-incubation
Protocol: Kinase reactions were started with the addition of 45 μL of the ATP/Tyr-Sox peptide substrate mix and monitored every 71 seconds for 60 minutes at λex360/λem485 in a Synergy^4 plate reader from BioTek (Winooski, Vt.).
The compound numbers correspond to the compound numbers in Table 1.

[3] = test system: H1975 cells (EGFR L858R/T790M); experiment: Cell proliferation (CellTiter Glo), H1975 cells; settings: proliferation GI50 WT EGFR / H1975
Protocol: as §7

SMILES: C=CC(=O)Nc1cccc(Oc2nc(Nc3ccc(N4CCN(C(=O)CO)CC4)cc3OC)ncc2Cl)c1 [Compound I-3, N-(3-(5-chloro-2-(4-(4-(2-hydroxyacetyl)piperazin-1-yl)-2-methoxyphenylamino)pyrimidin-4-yloxy)phenyl)acrylamide]
- Ratio WT/mutant (HCC827) [1]: >45
- EC50 (WT EGFR (A431 cells)): > 1000 nM
- EC50 [2]: 500 to 1000 nM
- Ratio WT/mutant (H1975) [2]: >5
- IC50 (EGFR (WT)): 1 to 10 nM
- Ratio WT/mutant (H1975) [3]: >5

SMILES: C=CC(=O)Nc1cccc(Nc2nc(Nc3ccc(N4CCN(C(=O)CO)CC4)cc3OC)ncc2C(F)(F)F)c1 [Compound I-6, N-(3-(2-(4-(4-(2-hydroxyacetyl)piperazin-1-yl)-2-methoxyphenylamino)-5-(trifluoromethyl)pyrimidin-4-ylamino)phenyl)acrylamide]
- Ratio WT/mutant (HCC827) [1]: >40
- EC50 (WT EGFR (A431 cells)): > 1000 nM
- EC50 [2]: 10 to 100 nM
- Ratio WT/mutant (H1975) [2]: >20
- IC50 (EGFR (WT)): 1 to 10 nM
- Ratio WT/mutant (H1975) [3]: >10

SMILES: C=CC(=O)Nc1cccc(Nc2nc(Nc3ccc(N4CCCN(C(C)=O)CC4)cc3OC)ncc2C(F)(F)F)c1 [Compound I-7, N-(3-(2-(4-(4-acetyl-1,4-diazepan-1-yl)-2-methoxyphenylamino)-5-(trifluoromethyl)pyrimidin-4-ylamino)phenyl)acrylamide]
- Ratio WT/mutant (HCC827) [1]: >10
- EC50 (WT EGFR (A431 cells)): > 1000 nM
- EC50 [2]: 100 to 500 nM
- Ratio WT/mutant (H1975) [2]: >5
- IC50 (EGFR (WT)): 10 to 30 nM
- Ratio WT/mutant (H1975) [3]: >1

SMILES: C=CC(=O)Nc1cccc(Nc2nc(Nc3ccc(N4CCN(C(C)=O)CC4)cc3OC)ncc2Cl)c1 [Compound I-8, N-(3-(2-(4-(4-acetylpiperazin-1-yl)-2-methoxyphenylamino)-5-chloropyrimidin-4-ylamino)phenyl)acrylamide]
- Ratio WT/mutant (HCC827) [1]: >20
- EC50 (WT EGFR (A431 cells)): > 1000 nM
- EC50 [2]: > 1000 nM
- Ratio WT/mutant (H1975) [2]: >1
- IC50 (EGFR (WT)): 10 to 30 nM
- Ratio WT/mutant (H1975) [3]: >1

SMILES: C=CC(=O)Nc1cccc(Oc2nc(Nc3ccc(N4CCN(C(C)=O)CC4)cc3OC)ncc2Cl)c1 [Compound I-9, N-(3-(2-(4-(4-acetylpiperazin-1-yl)-2-methoxyphenylamino)-5-chloropyrimidin-4-yloxy)phenyl)acrylamide]
- Ratio WT/mutant (HCC827) [1]: >50
- EC50 (WT EGFR (A431 cells)): > 1000 nM
- IC50 (EGFR (WT)): 1 to 10 nM
- Ratio WT/mutant (H1975) [3]: >5

SMILES: C=CC(=O)Nc1cccc(Oc2nc(Nc3ccc(N4CCN(C(=O)CO)CC4)cc3OC)ncc2C(F)(F)F)c1 [Compound I-11, N-(3-(2-(4-(4-(2-hydroxyacetyl)piperazin-1-yl)-2-methoxyphenylamino)-5-(trifluoromethyl)pyrimidin-4-yloxy)phenyl)acrylamide]
- Ratio WT/mutant (HCC827) [1]: >45
- EC50 (WT EGFR (A431 cells)): > 1000 nM
- EC50 [2]: 100 to 500 nM
- Ratio WT/mutant (H1975) [2]: >15
- IC50 (EGFR (WT)): 10 to 30 nM
- Ratio WT/mutant (H1975) [3]: >5

SMILES: C=CC(=O)Nc1cccc(Nc2nc(Nc3ccc(N4CCN(C(=O)CO)CC4)cc3OC)ncc2Cl)c1 [Compound I-12, N-(3-(5-chloro-2-(4-(4-(2-hydroxyacetyl)piperazin-1-yl)-2-methoxyphenylamino)pyrimidin-4-ylamino)phenyl)acrylamide]
- Ratio WT/mutant (HCC827) [1]: >30
- EC50 (WT EGFR (A431 cells)): > 1000 nM
- EC50 [2]: > 1000 nM
- Ratio WT/mutant (H1975) [2]: >1
- IC50 (EGFR (WT)): 10 to 30 nM
- Ratio WT/mutant (H1975) [3]: >1

SMILES: C=CC(=O)Nc1cccc(Oc2nc(Nc3ccc(N4CCOCC4)cc3OC(F)F)ncc2C(F)(F)F)c1 [Compound I-13, N-(3-(2-(2-(difluoromethoxy)-4-morpholinophenylamino)-5-(trifluoromethyl)pyrimidin-4-yloxy)phenyl)acrylamide]
- Ratio WT/mutant (HCC827) [1]: >50
- EC50 [2]: 10 to 100 nM
- IC50 (EGFR (WT)): 30 to 100 nM
- Ratio WT/mutant (H1975) [3]: >10

SMILES: C=CC(=O)Nc1cccc(Oc2nc(Nc3ccc(N4CCN(C(=O)NC)CC4)cc3OC)ncc2C(F)(F)F)c1 [Compound I-21, 4-(4-(4-(3-acrylamidophenoxy)-5-(trifluoromethyl)pyrimidin-2-ylamino)-3-methoxyphenyl)-N-methylpiperazine-1-carboxamide]
- Ratio WT/mutant (HCC827) [1]: >20
- EC50 (WT EGFR (A431 cells)): > 1000 nM
- EC50 [2]: 100 to 500 nM
- Ratio WT/mutant (H1975) [2]: >5
- IC50 (EGFR (WT)): 10 to 30 nM
- Ratio WT/mutant (H1975) [3]: >1

SMILES: C=CC(=O)Nc1cccc(Oc2nc(Nc3ccc(N4CCN(S(C)(=O)=O)CC4)cc3OC)ncc2C(F)(F)F)c1 [Compound I-22, N-(3-(2-(2-methoxy-4-(4-(methylsulfonyl)piperazin-1-yl)phenylamino)-5-(trifluoromethyl)pyrimidin-4-yloxy)phenyl)acrylamide]
- Ratio WT/mutant (HCC827) [1]: >35
- EC50 (WT EGFR (A431 cells)): > 1000 nM
- EC50 [2]: 100 to 500 nM
- Ratio WT/mutant (H1975) [2]: >35
- IC50 (EGFR (WT)): 30 to 100 nM
- Ratio WT/mutant (H1975) [3]: >10

SMILES: C=CC(=O)Nc1cccc(Oc2nc(Nc3ccc(N4CCN(S(C)(=O)=O)CC4)cc3OC)ncc2Cl)c1 [Compound I-26, N-(3-(5-chloro-2-(2-methoxy-4-(4-(methylsulfonyl)piperazin-1-yl)phenylamino)pyrimidin-4-yloxy)phenyl)acrylamide]
- Ratio WT/mutant (HCC827) [1]: >35
- EC50 (WT EGFR (A431 cells)): > 1000 nM
- EC50 [2]: 100 to 500 nM
- Ratio WT/mutant (H1975) [2]: >40
- IC50 (EGFR (WT)): 10 to 30 nM
- Ratio WT/mutant (H1975) [3]: >1

SMILES: C=CC(=O)Nc1cccc(Oc2nc(Nc3ccc(N4CCN(S(N)(=O)=O)CC4)cc3OC)ncc2C(F)(F)F)c1 [Compound I-27, N-(3-(2-(2-methoxy-4-(4-sulfamoylpiperazin-1-yl)phenylamino)-5-(trifluoromethyl)pyrimidin-4-yloxy)phenyl)acrylamide]
- Ratio WT/mutant (HCC827) [1]: >10
- EC50 (WT EGFR (A431 cells)): > 1000 nM
- IC50 (EGFR (WT)): 1 to 10 nM
- Ratio WT/mutant (H1975) [3]: >1

SMILES: C=CC(=O)Nc1cccc(Nc2nc(Nc3ccc(N4CCN(C(=O)OC)CC4)cc3OC)ncc2C(F)(F)F)c1 [Compound I-29, methyl 4-(4-(4-(3-acrylamidophenylamino)-5-(trifluoromethyl)pyrimidin-2-ylamino)-3-methoxyphenyl)piperazine-1-carboxylate]
- Ratio WT/mutant (HCC827) [1]: >15
- EC50 (WT EGFR (A431 cells)): > 1000 nM
- IC50 (EGFR (WT)): 10 to 30 nM
- Ratio WT/mutant (H1975) [3]: >10

SMILES: C=CC(=O)Nc1cccc(Nc2nc(Nc3ccc(N4CCN(C(C)=O)CC4)cc3OC(F)(F)F)ncc2C(F)(F)F)c1 [Compound I-33, N-(3-(2-(4-(4-acetylpiperazin-1-yl)-2-(trifluoromethoxy)phenylamino)-5-(trifluoromethyl)pyrimidin-4-ylamino)phenyl)acrylamide]
- Ratio WT/mutant (HCC827) [1]: >15
- EC50 (WT EGFR (A431 cells)): > 1000 nM
- EC50 [2]: 10 to 100 nM
- Ratio WT/mutant (H1975) [2]: >50
- IC50 (EGFR (WT)): 1 to 10 nM
- Ratio WT/mutant (H1975) [3]: >30

SMILES: C=CC(=O)Nc1cccc(Nc2nc(Nc3ccc(N4CCN(C(=O)C(C)(C)C)CC4)cc3OC)ncc2C(F)(F)F)c1 [Compound I-34, N-(3-(2-(2-methoxy-4-(4-pivaloylpiperazin-1-yl)phenylamino)-5-(trifluoromethyl)pyrimidin-4-ylamino)phenyl)acrylamide]
- Ratio WT/mutant (HCC827) [1]: >50
- EC50 (WT EGFR (A431 cells)): > 1000 nM
- EC50 [2]: 100 to 500 nM
- Ratio WT/mutant (H1975) [2]: >35
- IC50 (EGFR (WT)): 30 to 100 nM
- Ratio WT/mutant (H1975) [3]: >5

SMILES: C=CC(=O)Nc1cccc(Nc2nc(Nc3ccc(N4CCN(C(=O)CC)CC4)cc3OC)ncc2C(F)(F)F)c1 [Compound I-35, N-(3-(2-(2-methoxy-4-(4-propionylpiperazin-1-yl)phenylamino)-5-(trifluoromethyl)pyrimidin-4-ylamino)phenyl)acrylamide]
- Ratio WT/mutant (HCC827) [1]: >25
- EC50 (WT EGFR (A431 cells)): > 1000 nM
- EC50 [2]: < 10 nM
- IC50 (EGFR (WT)): 1 to 10 nM
- Ratio WT/mutant (H1975) [3]: >10
